Measurements: a compilation of properties of binary mixtures (doi:10.1007/s10765-020-02720-w)

Assay: xn = mol fraction of the nth substance listed
Details: 100 kPa

viscosity (293.2 K, x2 = 0.91) | viscosity (293.2 K, x2 = 0.972) | viscosity (308.19 K, x2 = 0.91) | viscosity (308.19 K, x2 = 0.972) | viscosity (338.16 K, x2 = 0.91) | viscosity (368.13 K, x2 = 0.91) | viscosity (368.13 K, x2 = 0.972) | viscosity (293.2 K, x1 = 1) | viscosity (308.19 K, x1 = 1) | viscosity (338.16 K, x1 = 1) | viscosity (368.13 K, x1 = 1) | SMILES
430 mPa·s | 370 mPa·s | 171 mPa·s | 153 mPa·s | 46.2 mPa·s | 17.6 mPa·s | 16.38 mPa·s |  |  |  |  | C[n+]1ccn(CCC(F)(F)C(F)(F)F)c1.F[P-](F)(F)(F)(F)F + CCCC[n+]1ccn(C)c1.F[P-](F)(F)(F)(F)F
 |  |  |  |  |  |  | 343 mPa·s | 144 mPa·s | 39.5 mPa·s | 16.34 mPa·s | CCCC[n+]1ccn(C)c1.F[P-](F)(F)(F)(F)F + C[n+]1ccn(CCC(F)(F)C(F)(F)F)c1.F[P-](F)(F)(F)(F)F
